Laboratory results published in US20190225670A1, “COMPOUNDS AND METHODS FOR ACTIVATING TIE2 SIGNALING” (ASCLEPIX THERAPEUTICS, LLC, priority 2016, published 2019).

Legend:
[1] = tested on: Tie2; assay: Triton X-100 fractionation of MEC lysates, Tie2; type: cell-based, human
Procedure: Tie2 at EC-EC junctions form actin-rich complexes that are insoluble in Triton X-100-based lysis buffers but are soluble when distributed over the surface of the cell. Therefore, MEC monolayers were treated with various combinations of AXT107, Ang1, and Ang2 and cell lysates were fractionated by their solubility in Triton X-100-based lysis buffers. Experiments including VEGF 165 were also performed since VEGFR2 signaling often opposes the activities of Tie2. In each experiment, 100 μM AXT107 was used since it provided clear results relative to lower concentrations of AXT107.
Next, experiments were performed to determine whether or not relocation of Tie2 to the insoluble fraction was important for Tie2's activation by Ang2. Tie2 was immunoprecipitated from fractionated MEC lysates exposed to Ang2 with or without AXT107 and then immunoblotted for phospho-Tie2.
The isolation of Triton X-100 soluble and insoluble fractions was performed using modifications to previously-described procedures (see, e.g., Lampugnani et al., J Cell Biol. 1995; 129(1):203-217). FN1-coated six-well plates were seeded with 2.5×10^6 cells and cultured for forty-eight hours, as described above. The cultures were then serum starved for ninety minutes in EBM-2 media, treated with 100 μM AXT107 or DMSO vehicle, and fifteen minutes with 1 mM sodium vanadate. […] Samples were analyzed by western blot as described above. […]

[2] = target: integrin αvβ3 (Homo sapiens, UniProt P05106+P06756); conditions: Lee et al., Sci Rep. 2014; cited from earlier work
Sequence of integrin αvβ3 (P06756 31-1048): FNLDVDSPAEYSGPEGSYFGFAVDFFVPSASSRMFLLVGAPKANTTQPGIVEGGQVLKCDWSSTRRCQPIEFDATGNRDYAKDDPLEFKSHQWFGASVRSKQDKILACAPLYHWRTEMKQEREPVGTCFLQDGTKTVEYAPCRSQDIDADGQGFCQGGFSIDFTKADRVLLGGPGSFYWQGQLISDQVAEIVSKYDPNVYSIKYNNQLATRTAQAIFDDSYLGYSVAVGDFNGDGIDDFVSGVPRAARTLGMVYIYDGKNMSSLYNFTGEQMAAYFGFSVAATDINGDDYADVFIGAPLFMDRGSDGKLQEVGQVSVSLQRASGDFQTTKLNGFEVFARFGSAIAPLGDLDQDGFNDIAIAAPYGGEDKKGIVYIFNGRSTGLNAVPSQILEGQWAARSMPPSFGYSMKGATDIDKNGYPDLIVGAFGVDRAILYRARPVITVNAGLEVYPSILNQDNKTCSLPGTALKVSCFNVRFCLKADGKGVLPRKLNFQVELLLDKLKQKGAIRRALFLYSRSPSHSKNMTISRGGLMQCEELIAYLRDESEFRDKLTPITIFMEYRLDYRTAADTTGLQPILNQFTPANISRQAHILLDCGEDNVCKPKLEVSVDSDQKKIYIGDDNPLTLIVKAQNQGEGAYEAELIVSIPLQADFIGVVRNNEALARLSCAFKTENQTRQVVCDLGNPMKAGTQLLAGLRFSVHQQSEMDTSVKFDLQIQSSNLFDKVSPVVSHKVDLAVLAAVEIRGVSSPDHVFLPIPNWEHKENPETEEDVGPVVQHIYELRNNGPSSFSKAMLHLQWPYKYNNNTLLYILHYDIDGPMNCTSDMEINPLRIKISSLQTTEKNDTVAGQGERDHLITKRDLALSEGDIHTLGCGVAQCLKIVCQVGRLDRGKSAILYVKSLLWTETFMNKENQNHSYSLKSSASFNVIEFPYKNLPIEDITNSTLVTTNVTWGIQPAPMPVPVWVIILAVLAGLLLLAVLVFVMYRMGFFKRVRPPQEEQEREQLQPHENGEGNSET
Sequence of integrin αvβ3 (P05106 27-788): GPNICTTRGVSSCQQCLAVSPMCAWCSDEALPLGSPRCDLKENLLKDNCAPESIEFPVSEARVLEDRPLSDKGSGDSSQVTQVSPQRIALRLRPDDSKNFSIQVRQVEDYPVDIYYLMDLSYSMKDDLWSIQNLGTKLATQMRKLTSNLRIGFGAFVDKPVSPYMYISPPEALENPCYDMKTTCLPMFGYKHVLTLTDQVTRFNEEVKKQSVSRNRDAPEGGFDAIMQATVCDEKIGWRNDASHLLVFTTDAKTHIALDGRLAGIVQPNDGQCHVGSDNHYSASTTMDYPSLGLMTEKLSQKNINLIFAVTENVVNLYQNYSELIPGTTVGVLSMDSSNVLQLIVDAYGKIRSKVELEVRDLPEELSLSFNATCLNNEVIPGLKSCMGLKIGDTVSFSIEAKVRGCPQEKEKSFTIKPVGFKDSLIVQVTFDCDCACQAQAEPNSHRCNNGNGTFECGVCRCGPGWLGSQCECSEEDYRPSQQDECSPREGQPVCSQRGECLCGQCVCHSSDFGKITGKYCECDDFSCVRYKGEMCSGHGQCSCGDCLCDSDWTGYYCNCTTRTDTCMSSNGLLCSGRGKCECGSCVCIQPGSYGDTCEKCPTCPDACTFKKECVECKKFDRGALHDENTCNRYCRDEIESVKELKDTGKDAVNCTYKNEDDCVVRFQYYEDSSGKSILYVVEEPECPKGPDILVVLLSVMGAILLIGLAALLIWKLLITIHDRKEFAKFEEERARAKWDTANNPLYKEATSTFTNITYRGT

[3] = Self-assembly of peptide in media; type: physicochemical; conditions: cell culture media
[4] = tested on: Tie2; assay: Retinopathy of prematurity (ROP) mouse model, Tie2 activation; type: in vivo; conditions: no data given
Description: To investigate the effects of AXT107 on Tie2 activation in vivo, retinopathy of prematurity (ROP) mouse model was used. In this system, P7 pups are placed in 75% 02 for five days, resulting in a loss of retinal capillary density from hyperoxia and a rapid induction of neovascularization upon the pup's return to normoxic conditions. […] Increased levels of Ang2 in the vitreous contribute to vessel leakage and macular edema in various retinopathies.

[5] = tested on: phospho-Tie2 (Y992); assay: Immunofluorescence of phospho-Tie2 in MEC monolayers; type: cell-based, human; conditions: 200 ng/ml Ang2 15 min and AXT107
Procedure: As such, subsequent experiments evaluate the effects of AXT107 at cell-cell junctions in MEC monolayers using immunofluorescence microscopy rather than at the EC-ECM interface.
Glass-bottomed, 96-well plates with half well size were coated with 10 μg/ml FN1 for two hours at 37° C. The FN1 solution was then removed by aspiration and the plate seeded with 4×10^3 MECs in EGM-2MV media. After twenty-four hours, the cells were washed once with dPBS containing Ca^2+ and Mg^2+ to remove dead cells and the cells were allowed to grow for an additional twenty-four hours. For three-hour duration treatments (i.e., VE-cadherin), cells were washed twice with dPBS containing Ca^2+ and Mg^2+ and serum starved in EBM-2 for ninety minutes. The media was then removed and the cells were treated for three hours with 100 μl of EBM-2 media containing 200 ng/ml Ang2 or PBS and varying concentrations of AXT107 or DMSO. For fifteen minute-treated samples (i.e., phospho-Tie2), the cells were serum starved in EBM-2 media for 165 minutes, incubated for ninety minutes with varying concentrations of AXT107 or DMSO in EBM-2, and finally stimulated for fifteen minutes with 200 ng/ml Ang2 or PBS supplemented with peptide to retain the same concentrations. These times were chosen so that both treatment procedures would be completed at the same time. […]

LRRFSTAPFAFIDINDVINF [AXT107]
amount of Tie2 in Triton X-100 insoluble fraction ([1]; 100 μM AXT107, independent of growth factor treatment): increased amounts | phospho-Tie2 in fractionated lysates immunoprecipitated for Tie2 ([1]; MEC exposed to Ang2 with or without AXT107): observed only in the insoluble fractions of peptide-treated samples | binding to integrin αvβ3 [2]: binds tightly | self-assembly when added to media [3]: self-assemble into peptide complexes | activation of Tie2 by Ang2 in vivo [4]: potentiates the activation of Tie2 by Ang2 | phospho-Tie2 fluorescence intensity and distribution [5]: increased overall fluorescence intensity and redistributed phospho-Tie2 along cell-cell junctions and into large clusters
